Measured values taken from PubChem BioAssay AID449762 (Southern Research Specialized Biocontainment Screening …, 2010).
Inconclusive results are not listed.

Tested on: M. tuberculosis H37Rv growth inhibition, 7H9 media
Assay: M. tuberculosis growth inhibition, HTS (AID 449762);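 note: bacterial growth assessed after seven days of incubation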
Settings: for IC90: measured here: IC90 growth inhibition

SMILES | IC50 | IC90
CN(Cc1ccc(Br)cc1)C(=O)CCN1C(=O)c2cccc([N+](=O)[O-])c2C1=O | 29.1 µM | > 100 µM
CCCCCC(=O)Nc1cccc2ccccc12 | 14.1 µM | > 100 µM
Cc1ccc(Cl)cc1N1CCN(C(=O)C2CCC(=O)N(C3CCCCCC3)C2)CC1 (centres undefined) | 19.3 µM | 28.6 µM
NNC(=S)NCc1ccc2c(c1)OCO2 | 23.8 µM | 26.8 µM
C/C(=C1/C(=O)N(c2ccc([N+](=O)[O-])cc2)N=C1c1ccccc1)N(C)C | 21.8 µM | 31.4 µM
CCOC(=O)c1sc(NC(=O)CN2C(=O)NC3(CC(C)CC(C)(C)C3)C2=O)cc1C (centres undefined) | 21.4 µM | 40.3 µM
Cc1ccc(Cl)cc1N1CCN(Cc2nc3ccsc3c(=O)[nH]2)CC1 | 83.1 µM | > 100 µM
CSc1ncc(C(=O)Nc2ccc(Br)cn2)c(C)n1 | 0.93 µM | 3.9 µM
O=[N+]([O-])c1ccc(-c2nc(-c3cccs3)c(-c3cccs3)[nH]2)cc1 | 21.7 µM | > 100 µM
CC(C)(C)OC(=O)NCCCCCc1nnc(SCc2ccc(F)cc2)o1 | 14.2 µM | 48.2 µM
Cn1cc(NC(=O)CCl)cn1 | 4.36 µM | 8.63 µM
COc1ccc(NC(=O)CN(C)CC(=O)Nc2sc3c(c2C(N)=O)CCC3)cc1 | 49.9 µM | 98 µM
c1nc2n(n1)C1=C(CCCC1)C1(CCCCC1)N2 | 10.2 µM | 30 µM
CCc1ccc(NC(=O)CSc2nc3n[nH]c(C)c3c(=N)n2-c2cccc(OC)c2)cc1 | 13.2 µM | 37.1 µM
O=C(c1ccc(-c2cccc(C(F)(F)F)c2)o1)N1CCN(c2ccccc2O)CC1 | 18.5 µM | 26.1 µM
CCOC(=O)c1cc(C)nc(Sc2ccc(C)cc2)c1C#N | 4.4 µM | 11.3 µM
c1ccc(CN2CCN(c3nc(NCc4ccco4)c4ccccc4n3)CC2)cc1 | 18.1 µM | 23.8 µM
Cc1nn(-c2ccccc2)c(N2CCCC2)c1/C=N/Nc1ccc(S(N)(=O)=O)cc1[N+](=O)[O-] | – | > 100 µM
Oc1ccccc1N=Cc1ccc[nH]1 | 3.83 µM | 7.96 µM
CC(=O)N1CCN(c2ccc(OC[C@H]3CO[C@](Cn4ccnc4)(c4ccc(Cl)cc4Cl)O3)cc2)CC1 | 17.5 µM | 25.2 µM
O=C(Nc1nnc(-c2ccccc2Cl)o1)c1nc2ccccc2s1 | 6.01 µM | 6.78 µM

SMILES | IC50 | IC90
OC(CN1CCN(c2ccccn2)CC1)Cn1c2ccccc2c2ccccc21 (centres undefined) | 36.1 µM | 51.7 µM
COc1ccc2c3n(nc2c1)CCN=C3c1cc(Cl)c(N)c(Cl)c1 | 12.8 µM | 31.9 µM
CNC(=O)COC(=O)c1ccc(-c2nc3ccccc3s2)s1 | 2.07 µM | 23 µM
CC1=CC(=O)C(C(C)C)=C/C1=N/OS(=O)(=O)c1ccccc1 | 1.44 µM | 4.12 µM
O=C(Nc1cccnc1Cl)c1cc(-c2ccco2)on1 | 41.4 µM | > 100 µM
CCCCNC(=S)N/N=C/c1cccc(OCC)c1O | 6.01 µM | 6.79 µM
CCN(C[C@H]1N[C@@](Cc2ccccc2)(C(=O)OC)[C@H]2C(=O)N(Cc3ccccc3)C(=O)[C@@H]12)C(=O)Nc1ccc(C(F)(F)F)cc1 | 10.4 µM | 11.4 µM
CCOC(=O)COc1cc(O)c2c(=O)cc(-c3ccccc3)oc2c1 | 0.68 µM | 2.33 µM
CCOc1cccc(C=Nc2cc(C)cc(C)c2O)c1O | 13.6 µM | 29.2 µM
Cc1ccc(-n2nnc3c(=O)oc4ccccc4c32)cc1 | < 0.2 µM | 19.9 µM
O=C(c1ccccc1)C1CN(Cc2ccccc2)CCC1(O)c1ccccc1 (centres undefined) | 9.4 µM | 14.6 µM
Cc1nc2sccn2c1-c1nc(-c2cc3ccccc3o2)cs1 | 52.5 µM | 90.7 µM
O=C(OCCN1C(=O)c2ccccc2C1=O)c1cc2ccccc2o1 | 12.2 µM | > 25 µM
COc1ccccc1OCCN1CSC(=S)N(C)C1 | 6.34 µM | 15.3 µM
Cc1cc2c(ccc3c2no[n+]3[O-])nn1 | 11.6 µM | 14.6 µM
Cc1cccc(/C=C/c2onc(C)c2[N+](=O)[O-])n1 | 10.9 µM | 19.1 µM
CC1(CCc2ccccc2)NC(=S)N(c2ccc(Cl)cc2)N1 (centres undefined) | – | > 100 µM
CC1=NN(c2ccccc2)C(=O)/C1=C\c1c(C)[nH]n(-c2ccccc2)c1=O | 18.2 µM | 46 µM
C/C(=N\NC(=O)c1ccc(O)cc1)c1ccc2c(c1)Nc1ccccc1S2 | 24.8 µM | 62.8 µM
COC(=O)CSc1ncnc2c1sc1nc3c(cc12)COC(C)(C)C3 | 3.68 µM | 17.3 µM
Cn1cnnc1SCc1ccc(C(=O)N=Nc2c(O)n(Cc3ccc(Cl)cc3)c3ccccc23)cc1 | 2.97 µM | 3.4 µM

SMILES | IC50 | IC90
CCc1ccc(NC(=O)c2ccc(C3SCC(=O)N3CCc3ccccc3)cc2)cc1 (centres undefined) | 97.5 µM | > 100 µM
C[N+](C)(CCCCCC[N+](C)(C)CCCN1C(=O)c2cccc3cccc(c23)C1=O)CCCN1C(=O)c2cccc3cccc(c23)C1=O | 2.59 µM | 3.72 µM
CCCCN1C(=N)N([C@@H](CCC)CN2CCC[C@H]2CN2C(N)=NC[C@@H]2Cc2ccccc2)C[C@H]1Cc1ccccc1 | 12.8 µM | 18.2 µM
c1ccc2c(C3=NNC(=NC4CCCCC4)SC3)c[nH]c2c1 | 42.7 µM | 47.2 µM
CNc1ccccc1C(=O)OC(C)C(=O)Nc1ccc(Cl)cn1 (centres undefined) | 28.2 µM | 51.3 µM
CCOC(=O)c1c(NC(=O)CSc2nc3ccc(OC)cc3[nH]2)sc2c1CC(C)(C)NC2(C)C | 21.1 µM | 26.2 µM
CC1Cc2cc(-c3csc(NC(=O)Cc4cccs4)n3)ccc2N1S(C)(=O)=O (centres undefined) | 10.6 µM | 38 µM
CN(C)c1nc(NCc2ccccc2)nc(N/N=C/c2ccc3c(c2)OCO3)n1 | 42.7 µM | > 100 µM
CCCCN(C)C(=O)Cc1c(OC)ccc2cc(Br)ccc12 | 19.5 µM | 29.2 µM
O=C(Nc1ccn(Cc2ccccc2F)n1)c1ccc(COc2ccccc2Cl)cc1 | 11.6 µM | 13.2 µM
C[Se]C[C@@H](N)C(=O)O | 51 µM | 69.6 µM
COc1cc(NC(=O)c2cnc(N)s2)cc(C(=O)Nc2cccc(C(F)(F)F)c2)c1 | 52 µM | 78.8 µM
O=C(CSc1nc2ccccc2nc1N1CCOCC1)N1CCN(c2ccccc2)CC1 | 11.4 µM | 13.2 µM
COc1ccc(CCNc2cc(-c3ccccc3)nc3ncnn23)cc1 | 4.49 µM | > 100 µM
CC1(O)CC(c2ccc(Cl)cc2)=NN1C(=O)c1ccc([N+](=O)[O-])cc1 (centres undefined) | 17.5 µM | > 100 µM
COC(=O)CCc1nc2c(C#N)c(-c3ccc(Cl)cc3)ccn2n1 | 1.68 µM | 3.31 µM
CC(=O)n1cc(/C=C2/N=C(c3ccccc3)OC2=O)c2ccccc21 | 30.7 µM | 75.5 µM
CCCCCCCNC(=O)C1(CC2CC(c3cccc(Br)c3)=NO2)CCNCC1 (centres undefined) | 42 µM | 53.1 µM
Nc1c(N(CCC2=CCCCC2)C(=O)c2ccc([N+](=O)[O-])o2)c(=O)[nH]c(=O)n1Cc1ccccc1 | 16.6 µM | 30.2 µM
O=C(N/N=C/c1ccc(Br)s1)c1cccs1 | 24.3 µM | > 100 µM
CCOC(=O)N1CCC(N2Cc3cccc(C(=O)Nc4ccc(N(CC)CC)cc4C)c3C2=O)CC1 | 45.1 µM | 50.5 µM
